Patent US10188727B2, “Bifunctional molecules with antibody-recruiting and entry inhibitory activity against the human immunodeficiency virus” (YALE UNIVERSITY, priority 2009, dated 2019)
Entries after “also recorded” stand apart in the source; their conditions may differ. Like-named read-outs stand apart in the source and are kept apart here.

Key:
CD4-gp120 interaction = CD4-gp120 interaction (Human immunodeficiency virus type 1, UniProt Q75760); assay: CD4 inhibition ELISA (competition ELISA, sCD4 binding to immobilized gp120); design: species or system HIV-1
Experimental: CD4 Inhibition ELISA (FIG. 2A)
This procedure was adapted from the protocol reported by Lin, et al.^14. 96 well plates (Nunc; Immuno) were coated overnight at 4° C. with soluble recombinant HIV-1 gp120JRFL (Immune Technology; Yonkers, N.Y.) at 1 μg/ml in 0.05M Buffer A (carbonate/bicarbonate, pH=9.6, Aldrich). Plates were washed with PBS (Aldrich, 1×100 μL) and then blocked with 3% nonfat milk in phosphate buffered saline solution (PBS, Aldrich) for 1 hr at room temperature. After washing with Buffer B (50 mM Tris HCl, 100 mM NaCl, 0.05% Tween-20, pH 7.4), varying concentrations of the inhibitor were added simultaneously with recombinant human T-cell CD4 (ImmunoDiagnostics, Inc; Woburn, Mass.) in Buffer C (50 mM Tris HCl, 100 mM NaCl, 1% BSA, pH 7.4) so that the final concentration/well of CD4 is 0.1 μg/mL and plates were incubated for 1 hr at room temperature. Plates were washed with Buffer B (3×100 μL) and then incubated with mouse OKT4 anti-CD4 IgG antibody (Biolegend; San Diego, Calif.) at 0.36 μg/ml in Buffer C at RT for 1 hr. Following washes with Buffer B, plates were incubated with horse radish peroxidase (HRP)-conjugated goat anti-mouse antibody (1:2500; Biolegend; San Diego, Calif.). Bound antibody was detected with 3,3,5,5-tetramethylbenzidine (TMB, Pierce Protein Research Products), the chromogenic substrate for HPR, and absorbance was read at 450 nm. […]

wild-type HIV IIIB = assay: MT-2 cell assay, antiviral activity (MTT); type: cell-based, HIV-1
Experimental: (§1) Antiviral activity and cellular toxicity were determined using the MTT colorimetric method^7,8. MT-2 cell^9,10 at a concentration of 1×10^5 cells per milliliter were infected with wild-type HIV IIIB^11,12,13 at a multiplicity of infection (MOI) of 0.1. Infected and mock-infected cells were incubated in growth medium (RPMI 1640, 10% δFBS, kanamycin) for 5 days with varying concentrations of each compound being tested in triplicate in a 96-well plate. MIT (thiazolyl blue tetrazolium bromide), a cell-permeable tetrazolium dye was then added to each well. Active mitochondria reduce the yellow tetrazolium salt to a blue formazan precipitate. After 5 h, stop solution (86% isopropanol, 4% NP-40, 10% H2O, and 0.3% concentrated HCl) was added to lyse the cells and stop the reaction. The plates were gently shaken gently overnight on a horizontal rotator, and quantitated the following morning. Cell viability was measured spectrophotometrically by quantifying the amount of purple precipitate via determining the absorbance at 595 nm using a Multiskan Plus from Labsystems (Helsinki, Finland) microplate reader. The average of these triplicate samples was then plotted versus inhibitor concentration to generate dose-response curves. The 50% effective concentration (EC50) and 50% cytotoxic concentration (CC50) of the compounds were defined as the concentrations required to inhibit viral replication and to reduce the number of viable cells by 50%, respectively. Positive controls were done during each set of experiments using d4T and the appropriate parent NNRTI (HI-236 or TMC-derivative). Data were quantitated using KaleidaGraph (Synergy Software). ^7. Mosmann, T. J. Immunol Methods 1983, 65, 55-63.^8. Pannecouque, C.; Daelemans, D.; Clercq, E. D. Nat Protoc. 2008, 3, 427-434.^9. Haertle, T.; Carrera, C. J.; Wasson, D. B.; Sowers, L. C.; Richman, D. D.; Carson, D. A. J. Biol Chem. 1988, 263, 5870-5875.^10. Harada, S.; Koyanagi, Y.; Yamamoto, N. Science 1985, 229, 563-566.^11. Popovic, M.; Read-Connole, E.; Gallo, R. C. […] Popovic, M.; Samgadharan, M. G.; Read, E.; Gallo, R. C. […]

MT-2 cells = assay: MT-2 cell assay, cellular toxicity in mock-infected cells (MTT); type: cell-based, human; conditions: control MT-2 cultures lacking HIV virus
Experimental: as §1, with “The 50% effective concentration (EC50) and 50% cytotoxic concentration (CC50) of the compounds were defined as the concentrations required to inhibit viral replication and to reduce the number of viable cells by 50%, respectively. Positive controls were done during each set of experiments using d4T and the appropriate parent NNRTI (HI-236 or TMC-derivative).” left out, “Mosmann, T. J. Immunol Methods 1983, 65, 55-63.^8. Pannecouque, C.; Daelemans, D.; Clercq, E. D. Nat Protoc. 2008, 3, 427-434.^9. Haertle, T.; Carrera, C. J.; Wasson, D. B.; Sowers, L. C.; Richman, D. D.; Carson, D. A. J. Biol Chem. 1988, 263, 5870-5875.^10. Harada, S.; Koyanagi, Y.; Yamamoto, N. Science 1985, 229, 563-566.^11.” left out

CHO-gp120 cells [1] = assay: CDC assay (complement-dependent cytotoxicity) on Env-expressing cells; type: cell-based, Chinese hamster
Experimental: CDC Assay (FIG. 4 and FIG. 8)
CHO-WT or CHO-K1 cells taken from a T-75 flask (˜80% confluent), were washed once with DPBS (Gibco, 5 mL), and cells were then detached with 2.5 mM EDTA/0.5 mM EGTA in DPBS. Resulting cell suspension was centrifuged at 900 rpm for five minutes, then pellet was aspirated and re-suspended at a density of 9.00×10^5 cells/mL in Buffer E. Subsequently, cell suspension was added to prepared dilutions of ARM-H (4) (or control molecule) in Buffer E. Resulting cell mixtures were plated in triplicate (50 μL, 22,500 cells/well)□ onto 96 well plates (CoStar, black sides/clear bottom), covered with tin foil and incubated at 4° C. for 1.5 hours. To each well, 50 μL of 20% rabbit complement serum (v/v, Aldrich) and 100 μg/mL rat anti-DNP IgG (Zymed; Carlsbad, Calif.) in Buffer E was added, resulting in a 10% (v/v) complement and 50 μg/mL antibody concentration per well. Negative control wells containing only ARM-H dilutions were prepared in addition to maximum cell death controls (0.15% H2O2). Covered plate was incubated for an additional hour at 4° C. and then for 4 hours at room temperature. All control experiments were conducted following the same protocol. Cell viability was determined using the luciferase-based CellTiter-Glo Luminescent Cell Viability Assay (Promega). Complement mediated cell death and cytotoxicity was calculated as: [1−((sample-max killing)/(untreated-max killing))]×100 and plotted using GraphPad Prism. Raw data was subjected to Dixon Q-test analysis at the 90% confidence interval and statistical outliers removed accordingly^16,17. ^16. Dean, R. B.; Dixon, W. J. Anal. Chem. 1951, 23, 636-638.^17. Efstathiou, C. E. Talanta 2006, 69, 1068-1071.

CHO-gp120 cells [2] = assay: Immunofluorescence microscopy, recruitment of labeled anti-DNP antibodies; type: cell-based, Chinese hamster; conditions: ARM-H plus competing ligand
Experimental: Immunofluorescence (FIG. 3)
Confluent CHO-WT (env expressing) or CHO-K1 (non-env expressing) cells were incubated on cover slips (15CIR-1D, Fisher) over 2 nights at 37° C. in 5% CO2. Cover slips were washed with DPBS (1 mL, Gibco) and then cells fixed with 4% parafomaldehyde in DPBS at 4° C. for 10 minutes. […] Cover slips then washed with Buffer E (2×70 μl) and incubated with AlexaFluor488 rabbit anti-DNP IgG antibodies (Invitrogen) at 15 μg/ml in Buffer E (70 μl) for 1 hr at 4° C. All cover slips were washed prior to mounting onto slides using Gel Mount mounting medium (Biomeda Corp.) with Buffer E and water. Corresponding competition experiments were performed in the presence of recombinant human T-cell CD4 (ImmunoDiagnostics, Inc; Woburn, Mass.), BMS-378806 (1) and DNP-PEG-alkyne (2). Cells were checked using a Zeiss Axiovert 200M fluorescence microscope equipped with a GFP filter.

CHO-K1 cells = assay: Flow cytometry detection of DNP labeling; type: cell-based, Chinese hamster; conditions: higher concentrations of labeling reagent, data not shown
Experimental: Flow Cytometry Detection of DNP Labeling (FIG. 9)
CHO-K1 cells taken from a T-75 flask (˜80% confluent), were washed once with DPBS (Gibco, 5 mL), and cells were then detached with 2.5 mM EDTA/0.5 mM EGTA in DPBS. Resulting cell suspension was centrifuged at 900 rpm for five minutes, then pellet was aspirated and re-suspended at a density of 1.40×10^6 cells/mL in F12-K growth medium. Cells were incubated with 2,4-dinitrobenzenesulfonic acid (TCI, 50 mg/mL solution in MeOH) at varying concentrations for 30 min. at room temperature. Cells centrifuged and washed with growth medium (×3) and then aliquoted (0.5 ml) into Eppendorf tubes at a cell density of 1.40×10^6 cells/mL. Cells incubated with AlexaFluor 488 conjugated rabbit anti-DNP IgG (Invitrogen) antibodies (20 μg/mL) for 1 hr at 4° C. Cells were subsequently centrifuged, washed with DPBS (3×0.5 mL), resuspended in 0.5 mL DPBS containing 150 μg of propidium iodide (to monitor cell death) and immediately analyzed for fluorescence using a FACSCalibur flow cytometer (Becton Dickinson) monitoring at least 10,000 events/measurement. Data were analyzed using FlowJo Analysis Software (Tree Star).

C[C@@H]1CN(C(=O)c2ccccc2)CCN1C(=O)C(=O)c1c[nH]c2nccc(OCCOCCOCCOCCOCCOCCn3cc(COCCOCCOCCOCCNc4ccc([N+](=O)[O-])cc4[N+](=O)[O-])nn3)c12 [ARM-H]
IC50 (CD4-gp120 interaction): ~8.7 µM | IC50 (wild-type HIV IIIB; Human immunodeficiency virus 1, IIIB, MT2, live HIV-1, human MT-2 T-cell line, read-out: IC50, HIV-1 inhibition in MT-2 cell assay): 6.4 µM | cytotoxicity in MT-2 cells (MT-2 cells): no observable cytotoxicity; also recorded: no non specific cytotoxicity | non specific cytotoxicity in CHO cell lines (CHO-gp120 cells [1]; CHO cell lines): no non specific cytotoxicity | cell death without antibody and complement (CHO-gp120 cells [1]; CHO-gp120 cells, absence of anti-DNP antibody and complement-preserved serum): no cell death was observed | concentrations at which inhibition of HIV entry and CDC activity were both operative (CHO-gp120 cells [1]; MT-2 entry inhibition and CDC together): 6 to 30 µM

COc1ccnc2[nH]cc(C(=O)C(=O)N3CCN(C(=O)c4ccccc4)C[C@H]3C)c12 [Formula 1, 4-benzoyl-1-(2-(4-methoxy-1H-pyrrolo(2,3-b)pyridin-3-yl)-1,2-dioxoethyl)-2-methyl-, (2R)-Piperazine, reference compound]
IC50 (CD4-gp120 interaction): 1.3 µM | IC50 (wild-type HIV IIIB; Human immunodeficiency virus 1, IIIB, MT2, read-out: IC50, HIV-1 inhibition in MT-2 cell assay): 0.32 µM | fluorescence of ARM-H-recruited anti-DNP antibodies in the presence of competing ligand (CHO-gp120 cells [2]): considerably diminished

C#CCOCCOCCOCCOCCNc1ccc([N+](=O)[O-])cc1[N+](=O)[O-] [Formula 2, N-(2,4-dinitrophenyl)-3,6,9,12-tetraoxapentadec-14-yn-1-amine]
fluorescence of ARM-H-recruited anti-DNP antibodies in the presence of competing ligand (CHO-gp120 cells [2]): considerably diminished

Cc1cn([C@H]2C=C[C@@H](CO)O2)c(=O)[nH]c1=O [d4T]
IC50 (wild-type HIV IIIB; live HIV-1, human MT-2 T-cell line, read-out: IC50, HIV-1 inhibition in MT-2 cell assay): 4.2 µM

O=[N+]([O-])c1ccc(S(=O)(=O)O)c([N+](=O)[O-])c1 [dinitrobenzenesulfonic acid, 2,4-dinitrobenzenesulfonic acid]
cell death on labeling of CHO-K1 cells (CHO-K1 cells): Significant cell death
